From US12522575B2, “2-diarylmethyl-4-aminotetrahydropyran derivatives and related compounds as anticancer, antiinflammatory, antifibrotic and neuroprotective agents” (Atux Iskay LLC, priority 2021, dated 2026)

Experiments:
Type in all cases: cell-based
[1] = test system: D425 medulloblastoma cells; test: D425 cell viability / proliferation (CellTiter-Glo); conditions: Medulloblastoma cell; 48 hours treatment, CellTiter-Glo; read-out: IC50 for D425 cell growth
Description: D425 medulloblastoma cells were purchased from SigmaAldrich. D425 meduloblastoma cells were cultured in improved Dulbecco's modified Eagle's medium (DMEM) Richter's modification supplemented with 20% fetal bovine serum and 1% Penicillin-streptomycin. Incubation was performed at 37° C. and 5% CO2.
D425 cells were seeded at 3000-3500 cells/90 ul growth medium per well on 96-well tissue culture plates. Cells were incubated overnight to allow them to recover. Next day cells were treated with tested compounds and incubated for 48 hours.
Cell Proliferation assays in triplicate were performed at each concentration. Compounds test range was 1-30 μM (0, 5, 10, 15, 20, 25, and 30). The compounds were dissolved in DMSO. A series of dilutions were made in 1% DMSO in growth medium so that the final concentration of DMSO is 0.1% in all of treatments.
After treatment, cells were allowed to equilibrate at room temperature for one hour. Cell proliferation was measured by Luminescence quantification using Promega CellTiter-Glo Luminescent Cell Viability Assay. To perform the assay, 90 ul of Celltiter-Glo substrate was added to each well, plates were shake for 2 minutes and allowed to equilibrate for 10 minutes at room temperature. Luminescence intensity was measured using the Spectramax i3x plate reader.
(§1) The Luminescence intensity data were analyzed using the computer software Graphpad Prism. In the absence of the compound, the luminescence intensity (Lt) in each data set was defined as 100% cell viability. The percent cell in the presence of each compound was calculated according to the following equation: % Cell=L/Lt, were L=the luminescence intensity in the presence of the compound.
The values of % cell versus a series of compound concentrations (0, 5, 10, 15, 20, 25, and 30 μM) were then plotted using Nonlinear regression analysis of Sigmoidal dose-response curve. IC50 value was determined by the concentration causing a half-maximal percent activity.

A172 glioblastoma cells = test: A172 cell viability / proliferation (CellTiter-Glo); conditions: Homo sapiens, A 172, 48-72 hours treatment, read-out: IC50 for A172 cell growth
Description: A172 glioblastoma cells were cultured in Dulbecco's modified Eagle's medium (DMEM) supplemented with 10% fetal bovine serum and 1% Penicillin-streptomycin. Incubation was performed at 37° C. and 5% CO2.
A172 cells were seeded at 3000-3500 cells/90 μL growth medium per well on 96-well tissue culture plates. Cells were incubated overnight to allow them to recover and reattach. Next day cells were treated with tested compounds and incubated for 48-72 hours.
Cell Proliferation assays in triplicate were performed at each concentration. Compounds test range was 1-30 µM (0, 5, 10, 15, 20, 25, and 30). The compounds were dissolved in DMSO. […]
After treatment, cells were allowed to equilibrate at room temperature for 1/2 to one hour. Cell proliferation was measured by Luminescence quantification using Promega CellTiter-Glo Luminescent Cell Viability Assay. […] Luminescence intensity was measured using the Spectramax i3× plate reader.
as §1, with “compound. […]” for “compound.”

ERK and JNK = ERK and JNK signaling in lung fibroblasts (immunoblot, densitometry); conditions: 1 μM, 24 hours, lung fibroblasts (FIGS. 2 and 3)
Description: Each dot represents cells from a different subject. Student t-tests or 2-way ANOVA were performed and a p-value […] was denoted as ** when comparing between phosphorylated and unphosphorylated groups.
Compounds of the present invention reactivate PP2A responses in fibroblasts from healthy and IPF subjects.

Compound: O=S(=O)(NC1CCOC(C2c3ccc(F)cc3CCc3cc(F)ccc32)C1)c1ccc(OC(F)(F)F)cc1 (stereo not drawn) [Example 6, N-(2-(2,8-difluoro-10,11-dihydro-5H-dibenzo[a,d][7]annulen-5-yl)tetrahydro-2H-pyran-4-yl)-4-(trifluoromethoxy)benzenesulfonamide]
- IC50 [1]: 5.8 µM
- IC50 (A172 glioblastoma cells): 9.9 µM
- ERK and JNK signaling (ERK and JNK): reduced ERK and JNK signaling
